Values of other authors in patent publication US20100183726A1, “COMPOSITIONS AND METHODS FOR TREATING CANCER WITH DACARBAZINE NANOEMULSIONS” (priority 2006, published 2010).
Where two headings read alike, the source gives them in different places.

Experiments:
melanoma B16F10 cells = conditions: 150 mg/kg; 14 days after inoculation; p<0.01 versus untreated controls
Cloudman S91 cells = conditions: 100 μg/ml
[1] = not given; remark: listed apart in the source
B16 cells = conditions: 200 μg/ml
[2] = dacarbazine alone, meta-analysis of 14 studies, 1167 patients

For `CN(C)N=Nc1[nH]cnc1C(N)=O` [dacarbazine, 5-(3,3-dimethyl-1-triazeno)imidazole-4-carboxamide], the “T50% α value relative to typical dose” value (higher doses (850-1980 mg/m^2)) is listed as 3.5 fold, the “injected dose crossing the blood-brain barrier” value (in vivo) is listed as 13% and the protein binding (in vivo) is listed as “binds weakly to proteins”. For the same compound, the “secretion in breast milk” value (in vivo) was “secreted in breast milk”, the volume of distribution (in vivo) was “exceeds the water volume of the body” and the bioavailable fraction (intravenously injected) was 50-60%. For the same compound, the “fraction of an oral dose absorbed” value (oral administration) was 14-23%, the renal clearance (regardless of the dose injected) was “exceeds creatinine clearance” and the “number of metastatic pulmonary nodules” value (melanoma B16F10 cells) was “significantly decreased”. The complete remission (metastatic melanoma; 143 patients treated with dacarbazine alone) was 5%, the average response rates (metastatic melanoma; contemporary trials) was < 10% and the median progression-free survival (metastatic melanoma; contemporary trials) was ≤ 2 months. The average mean survival (metastatic melanoma; [2]) was 8 months, the average response rate (metastatic melanoma; [2]) was 18.7% and the “complete remission average rate” value (metastatic melanoma; [2]) was 5.4%. For the same compound, the “highest induction of apoptosis” value (Cloudman S91 cells) was 22.2%, the “patients developing constitutional symptoms (nausea, vomiting, occasionally diarrhea)” value ([1]; in vivo) was 90% and the cytopenia grade ([1]; white cell and platelet counts after injection) was “WHO grade 1 or rarely grade 2”. The increased survival time (melanoma B16 cells; B16 cells implanted intraperitoneally) was 29%, the increased survival time (melanoma B16 cells; B16 cells implanted subcutaneously) was 43% and the “inhibition of tumor growth” value (melanoma B16 cells; intraperitoneal injection) was “did not inhibit tumor growth”. For the same compound, the “highest induction of apoptosis” value (B16 cells) was 11%.
In the case of `NC(=O)c1nc[nH]c1N` [AIC, 5-aminoimidazol-me-4-carboxamide], the “time to maximal serum concentration” value (after injection of dacarbazine) is given as 15 min and the “time at which detectable after intravenous injection of dacarbazine” value (in vivo, iv) is given as 15 min.
